Test results reported in patent publication US8653125B2, “Cyclohexane derivative having NPY Y5 receptor antagonism” (Shionogi Co., Ltd., priority 2009, dated 2014).

Target: mouse NPY Y5 receptor (Mus musculus (Mouse), UniProt O70342)
Assay: Affinity for NPY Y5 receptor (Test Example 1-1), 125I peptide YY binding
Conditions: inhibition of 125I peptide YY binding to membranes of CHO cells expressing mouse NPY Y5 receptor
Text: cDNA sequence encoding mouse NPY Y5 receptor (Biochem. Biophys. Acta 1328: 83-89, 1997) was cloned in the expression vector (pME18S, Takebe et al. Mol. Cell. Biol. 8, 466-472). The obtained expression vector was transfected into CHO cells as a host according to the instruction manual using Lipofectamine reagent (Trademark, Gibco BRL Co., Ltd.). The cells that stably express NPY Y5 receptor were obtained.
The membrane samples prepared from the CHO cells expressing NPY Y5 receptor, the compound of the invention and 30,000 cpm ^125I peptide YY (60 pM of final concentration: Amersham) were incubated in the assay buffer (20 mM HEPES-Hanks buffer containing 0.1% bovine serum albumin, pH 7.4) at 25° C. for 2 hours. The membrane samples were then filtered from the mixture through a glassfilter (GF/C) presoaked with 1% polyethyleneimine. After washing with 50 mM Tris-HCl buffer (pH 7.4), radioactivity retained on the filters was determined using gamma counter. Non-specific binding was determined in the presence of 200 nM of peptide YY and the 50% inhibitory concentration (IC50 value) of the test compound for specific peptide YY binding was calculated (Inui, A. et al. Endocrinology 131, 2090-2096 (1992)).

mouse NPY Y5 receptor, sequence (O70342 whole entry): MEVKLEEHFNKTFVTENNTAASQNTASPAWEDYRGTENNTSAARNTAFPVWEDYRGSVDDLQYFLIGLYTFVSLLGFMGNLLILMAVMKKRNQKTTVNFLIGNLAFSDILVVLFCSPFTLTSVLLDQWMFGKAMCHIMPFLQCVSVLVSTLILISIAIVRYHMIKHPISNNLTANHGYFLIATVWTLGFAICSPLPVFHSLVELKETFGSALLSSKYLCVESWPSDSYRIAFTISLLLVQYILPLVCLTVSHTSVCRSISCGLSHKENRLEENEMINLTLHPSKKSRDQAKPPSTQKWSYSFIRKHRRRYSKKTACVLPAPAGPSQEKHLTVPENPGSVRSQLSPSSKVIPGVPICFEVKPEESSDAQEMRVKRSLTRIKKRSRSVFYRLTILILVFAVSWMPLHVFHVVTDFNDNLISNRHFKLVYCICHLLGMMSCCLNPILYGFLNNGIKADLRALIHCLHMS

| IC50 [nM] | SMILES |
| --- | --- |
| 3.8 | O=C(N[C@H]1CC[C@@H](C(=O)Nc2ccn(-c3ccccc3F)n2)CC1)c1cccc(Cl)n1 [Ia-4] |
| 1.5 | CC(C)n1c(=O)oc2cc(NC(=O)[C@H]3CC[C@@H](Nc4cccc(F)n4)CC3)ccc21 [Ib-4] |
| 1.1 | C[C@@H]1CN(c2ccc(NC(=O)[C@H]3CC[C@@H](Oc4cc(Cl)ccc4C#N)CC3)cc2)C[C@H](C)O1 [Ic-12] |
| 3 | O=C(N[C@H]1CC[C@@H](c2nc(-c3cccc(Cl)c3)c[nH]2)CC1)c1ccon1 [Ia-42] |
| 0.65 | O=C(N[C@H]1CC[C@@H](C(=O)Nc2ccc(-c3ccccc3)cc2)CC1)c1ccon1 [Ia-35] |
| 0.69 | O=C(Nc1ccn(-c2ccccc2F)n1)[C@H]1CC[C@@H](Oc2cc(Cl)ccn2)CC1 [Ic-17] |
| 4.1 | O=C(N[C@H]1CC[C@@H](C(=O)Nc2cccc(-c3ccccc3F)c2)CC1)c1ccon1 [Ia-28] |
| 0.58 | O=C(Nc1ccn(-c2ccccc2F)n1)[C@H]1CC[C@@H](N2c3ccccc3OS2(=O)=O)CC1 [Id-8] |
| 2.9 | O=C(Nc1ccn(-c2ccccc2F)n1)[C@H]1CC[C@@H](Nc2cccc(F)n2)CC1 [Ib-1] |
| 0.56 | CC(C)n1c(=O)oc2cc(NC(=O)[C@H]3CC[C@@H](Oc4cc(Cl)ccc4C#N)CC3)ccc21 [Ic-13] |
| 1.8 | C[C@@H]1CN(c2ccc(NC(=O)[C@H]3CC[C@@H](Oc4cc(C(F)(F)F)ccc4C#N)CC3)cc2)C[C@H](C)O1 [Ic-11] |
| 4.5 | CC(C)n1c(=O)oc2cc(NC(=O)[C@H]3CC[C@@H](NC(=O)c4ccccc4)CC3)ccc21 [Ia-15] |
| 0.68 | CC(C)n1c(=O)oc2cc(NC(=O)[C@H]3CC[C@@H](Oc4cc(C(F)(F)F)ccc4C#N)CC3)ccc21 [Ic-14] |
| 0.26 | O=C(N[C@H]1CC[C@@H](c2nc(-c3ccc(Cl)c(Cl)c3)c[nH]2)CC1)c1ccon1 [Ia-40] |
| 1.8 | O=C(N[C@H]1CC[C@@H](c2nc(-c3cccc(C(F)(F)F)c3)c[nH]2)CC1)c1ccon1 [Ia-43] |
| 1.5 | C[C@@H]1CN(c2ccc(NC(=O)[C@H]3CC[C@@H](Oc4cc(Cl)ccn4)CC3)cc2)C[C@H](C)O1 [Ic-5] |
| 1.6 | O=C(N[C@H]1CC[C@@H](C(=O)Nc2ccn(-c3ccccc3F)n2)CC1)c1cccc(F)n1 [Ia-2] |
| 3.3 | CC(C)n1c(=O)oc2cc(NC(=O)[C@H]3CC[C@@H](NC(=O)c4ccon4)CC3)ccc21 [Ia-32] |
| 0.41 | CC(C)n1c(=O)oc2cc(NC(=O)[C@H]3CC[C@@H](Oc4cc(C(F)(F)F)ccn4)CC3)ccc21 [Ic-16] |
| 2.3 | N#Cc1ccccc1O[C@H]1CC[C@@H](C(=O)Nc2ccc(OC(F)F)cc2)CC1 [Ic-8] |
| 0.71 | O=C(N[C@H]1CC[C@@H](C(=O)Nc2ccc(-c3ccccc3F)cc2)CC1)c1ccon1 [Ia-30] |
| 2.9 | N#Cc1ccccc1C(=O)N[C@H]1CC[C@@H](C(=O)Nc2ccn(-c3ccccc3F)n2)CC1 [Ia-24] |
| 4.1 | O=C(N[C@H]1CC[C@@H](C(=O)Nc2cccc(-c3ccccc3F)c2)CC1)c1ccccc1 [Ia-14] |
